Results taken from PubChem BioAssay AID1963984 (Molecular Pharmacology Branch, DTP, NCI, 2024).

Test system: 233499-124-R-J3-PDC spheroids with HUVEC/MSC, viability
Assay: Anticancer human tumor 233499-124-R-J3-PDC patient-derived colon adenocarcinoma cell line growth inhibition [PI3K]
Conditions: for IC50: curve of first compound; for viability, T/C: stronger effect = lower value
Text: Combinatorial screen of targeted agents with the PI3K inhibitors inavolisib, alpelisib, duvelisib, and copanlisib in multi-cell type tumor spheroids
A high-throughput screen of multi-cell type tumor spheroids was designed to identify active combinations of targeted small molecules and PI3K pathway inhibitors. Complex spheroids include a stromal component modeled by human endothelial cells (HUVEC) and fibroblasts modeled by human mesenchymal stem cells (MSCs). The concentration ranges selected for each drug and investigational agent were based upon clinically achievable concentrations if the clinical Cmax of the agent was known.
Compounds. The drugs and investigational agents: inavolisib (NSC800729), alpelisib (NSC765974), duvelisib (NSC772469), copanlisib (NSC816437), ipatasertib (NSC767898), afuresertib (NSC778305), talazoparib (NSC767125), sapanisertib (NSC764658), selumetinib (NSC741078), tovorafenib (DAY101, NSC766906), vemurafenib (NSC761431), ravoxertinib (NSC781343), sotorasib (NSC818433), MRTX1133 (NSC 836407), abemaciclib (NSC 768073), palbociclib (NSC758247), venetoclax (NSC 766270), SY5609 (NSC837396), enzalutamide (NSC755605), and darolutamide (NSC825331), were obtained from the National Cancer Institute (NCI) Developmental Therapeutics Program Chemical Repository. The FDA-approved anticancer drug set is available from the NCI Developmental Therapeutics Program. […] The stock solutions were prepared in dimethyl sulfoxide (DMSO, Sigma-Aldrich, St. Louis, MO, cat. D2650) at 800-fold the tested concentration and stored at -70 degrees C prior to their use. All drugs and investigational agents were tested over a range starting from a high concentration at or near the clinical Cmax and decreasing in half-log increments. If the clinical Cmax for an agent had not been determined, the highest concentration tested was 10 microM.
Cell Culture. All cells were maintained in an incubator at 37 degrees C and 5% CO2 with 95% humidity. The PDC lines were cultured according to standard operating procedures established by the NCI PDMR (https://pdmr.cancer.gov/sops/default.htm). All PDCs were thawed and cultured in Matrigel-coated flasks prepared with a working solution of 1X Ham's F-12 nutrient mix, without supplementation (Invitrogen, Waltham, MA, cat. 11765054), 100 U/mL penicillin-streptomycin (Invitrogen, cat. 15140122), and 2.5% Matrigel (Corning Inc., Corning, NY, cat. 354248) for the first three passages. The 354836-022-R-J1-PDC, 475296-252-R-J1-PDC, and 997726-040-R-J2-PDC lines were cultured in 6A media, which includes advanced DMEM/F-12 (Thermo Fisher Scientific, cat. 12634028), 10 mM HEPES (Thermo Fisher Scientific, cat. 15630080), 1X GlutaMAX supplement (Thermo Fisher Scientific, cat. 35050061), 0.1 mg/mL primocin (InvivoGen, San Diego, CA, cat. ant-pm-2), 10% defined fetal bovine serum, heat inactivated (HyClone Laboratories Inc., Logan, UT, cat. SH30070.03HI), 50% L-WRN conditioned media (ATCC, cat. CRL-3276), 1.25 mM N-Acetyl-L-cysteine (Sigma-Aldrich, cat. A9165), 10 mM nicotinamide (Sigma-Aldrich, cat. N0636), 1X B-27 supplement (Thermo Fisher Scientific, cat. 17504044), 1X N-2 supplement (Thermo Fisher Scientific, cat. 17502048), and 10 microM Y-27632 dihydrochloride (Tocris Bioscience, Bristol, United Kingdom, cat. 1254). The 624824-186-R-J2-PDC line was cultured in 6C/Colon 1B media, which includes all 6A media components plus 50 ng/mL human EGF recombinant protein (Thermo Fisher Scientific, cat. PHG0311). […]

[1] = second compound 0.00316 µM, first compound 0.0316 µM
[2] = second compound 0.00316 µM, first compound 0.1 µM
[3] = second compound 0.00316 µM, first compound 0.316 µM
[4] = second compound 0.00316 µM, first compound 1 µM
[5] = second compound 0.00316 µM, first compound 3.16 µM
[6] = second compound 0.00316 µM, first compound 10 µM
[7] = second compound 0.01 µM, first compound 0.0316 µM
[8] = second compound 0.01 µM, first compound 0.1 µM
[9] = second compound 0.01 µM, first compound 0.316 µM
[10] = second compound 0.01 µM, first compound 1 µM
[11] = second compound 0.01 µM, first compound 3.16 µM
[12] = second compound 0.01 µM, first compound 10 µM
[13] = second compound 0.0316 µM, first compound 0.0316 µM
[14] = second compound 0.0316 µM, first compound 0.1 µM
[15] = second compound 0.0316 µM, first compound 0.316 µM
[16] = second compound 0.0316 µM, first compound 1 µM
[17] = second compound 0.0316 µM, first compound 3.16 µM
[18] = second compound 0.0316 µM, first compound 10 µM
[19] = second compound 0.1 µM, first compound 0.0316 µM
[20] = second compound 0.1 µM, first compound 0.1 µM
[21] = second compound 0.1 µM, first compound 0.316 µM
[22] = second compound 0.1 µM, first compound 1 µM
[23] = second compound 0.1 µM, first compound 3.16 µM
[24] = second compound 0.1 µM, first compound 10 µM
[25] = second compound 0.316 µM, first compound 0.0316 µM
[26] = second compound 0.316 µM, first compound 0.1 µM
[27] = second compound 0.316 µM, first compound 0.316 µM
[28] = second compound 0.316 µM, first compound 1 µM
[29] = second compound 0.316 µM, first compound 3.16 µM
[30] = second compound 0.316 µM, first compound 10 µM
[31] = second compound 1 µM, first compound 0.0316 µM
[32] = second compound 1 µM, first compound 0.1 µM
[33] = second compound 1 µM, first compound 0.316 µM
[34] = second compound 1 µM, first compound 1 µM
[35] = second compound 1 µM, first compound 3.16 µM
[36] = second compound 1 µM, first compound 10 µM
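Note: spheroids exposed to agents for seven days before readout.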
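Throughout, for viability, T/C: percent viability relative to DMSO vehicle control taken as 100%.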

`CC1(C)CCC(CN2CCN(c3ccc(C(=O)NS(=O)(=O)c4ccc(NCC5CCOCC5)c([N+](=O)[O-])c4)c(Oc4cnc5[nH]ccc5c4)c3)CC2)=C(c2ccc(Cl)cc2)C1` + CC(Nc1ccc2c(c1)OCCn1cc(N3C(=O)OCC3C(F)F)nc1-2)C(N)=O was tested, and the IC50 (second compound 0.00316 µM) was 5.38 µM, the IC50 (second compound 0.01 µM) was 4.1 µM and the IC50 (second compound 0.0316 µM) was 4.86 µM. For the same compound, the IC50 (second compound 0.1 µM) was 4.85 µM, the IC50 (second compound 0.316 µM) was 2.16 µM and the IC50 (second compound 1 µM) was 3.2 µM. It also gave a viability, T/C [1] of 99.3%, a viability, T/C [2] of 94.1% and a viability, T/C [3] of 71.9%. The viability, T/C [4] was 109%, the viability, T/C [5] was 90.1% and the viability, T/C [6] was 3.01%. It also gave a viability, T/C [7] of 86%, a viability, T/C [8] of 85.5% and a viability, T/C [9] of 96.3%. The viability, T/C [10] was 74.7%, the viability, T/C [11] was 65.7% and the viability, T/C [12] was 2.45%. For the same compound, the viability, T/C [13] was 79.3%, the viability, T/C [14] was 66.2% and the viability, T/C [15] was 75.8%. For the same compound, the viability, T/C [16] was 73.6%, the viability, T/C [17] was 93.5% and the viability, T/C [18] was 3.53%. For the same compound, the viability, T/C [19] was 60.9%, the viability, T/C [20] was 85.6% and the viability, T/C [21] was 86.5%. The viability, T/C [22] was 81%, the viability, T/C [23] was 78.8% and the viability, T/C [24] was 1.51%. It also gave a viability, T/C [25] of 75.8%, a viability, T/C [26] of 69.3% and a viability, T/C [27] of 65.2%. For the same compound, the viability, T/C [28] was 77.2%, the viability, T/C [29] was 39.2% and the viability, T/C [30] was 4.28%. It also gave a viability, T/C [31] of 66.8%, a viability, T/C [32] of 49% and a viability, T/C [33] of 47.4%. For the same compound, the viability, T/C [34] was 58.2%, the viability, T/C [35] was 50.1% and the viability, T/C [36] was 2.38%.

`C[C@@H](NC(=O)c1ncnc(N)c1Cl)c1ncc(C(=O)Nc2cc(C(F)(F)F)c(Cl)cn2)s1` + CC(Nc1ccc2c(c1)OCCn1cc(N3C(=O)OCC3C(F)F)nc1-2)C(N)=O gave an IC50 (second compound 0.00316 µM) of over 10 µM, an IC50 (second compound 0.01 µM) of over 10 µM and an IC50 (second compound 0.0316 µM) of over 10 µM. The IC50 (second compound 0.1 µM) was over 10 µM, the IC50 (second compound 0.316 µM) was over 10 µM and the IC50 (second compound 1 µM) was over 10 µM. The viability, T/C [1] was 102%, the viability, T/C [2] was 112% and the viability, T/C [3] was 113%. For the same compound, the viability, T/C [4] was 105%, the viability, T/C [5] was 126% and the viability, T/C [6] was 90.5%. For the same compound, the viability, T/C [7] was 113%, the viability, T/C [8] was 119% and the viability, T/C [9] was 130%. It also gave a viability, T/C [10] of 105%, a viability, T/C [11] of 111% and a viability, T/C [12] of 102%. It also gave a viability, T/C [13] of 99.4%, a viability, T/C [14] of 119% and a viability, T/C [15] of 109%. The viability, T/C [16] was 98.6%, the viability, T/C [17] was 113% and the viability, T/C [18] was 74.5%. It also gave a viability, T/C [19] of 87.2%, a viability, T/C [20] of 84.6% and a viability, T/C [21] of 108%. It also gave a viability, T/C [22] of 106%, a viability, T/C [23] of 102% and a viability, T/C [24] of 92%. For the same compound, the viability, T/C [25] was 82.8%, the viability, T/C [26] was 81.2% and the viability, T/C [27] was 85.6%. The viability, T/C [28] was 95.2%, the viability, T/C [29] was 102% and the viability, T/C [30] was 65.8%. For the same compound, the viability, T/C [31] was 53.5%, the viability, T/C [32] was 68.5% and the viability, T/C [33] was 52.5%. For the same compound, the viability, T/C [34] was 83%, the viability, T/C [35] was 77.2% and the viability, T/C [36] was 56.6%.

`Cn1ncnc1[C@H]1c2n[nH]c(=O)c3cc(F)cc(c23)N[C@@H]1c1ccc(F)cc1` + CC(Nc1ccc2c(c1)OCCn1cc(N3C(=O)OCC3C(F)F)nc1-2)C(N)=O showed an IC50 (second compound 0.00316 µM) of over 0.1 µM, an IC50 (second compound 0.01 µM) of 0.0966 µM and an IC50 (second compound 0.0316 µM) of over 0.1 µM. The IC50 (second compound 0.1 µM) was over 0.1 µM, the IC50 (second compound 0.316 µM) was over 0.1 µM and the IC50 (second compound 1 µM) was 0.0269 µM. For the same compound, the viability, T/C (second compound 0.00316 µM, first compound 0.000316 µM) was 86.6%, the viability, T/C (second compound 0.00316 µM, first compound 0.001 µM) was 109% and the viability, T/C (second compound 0.00316 µM, first compound 0.00316 µM) was 70%. For the same compound, the viability, T/C (second compound 0.00316 µM, first compound 0.01 µM) was 105%, the viability, T/C [1] was 84.3% and the viability, T/C [2] was 63.4%. It also gave a viability, T/C (second compound 0.01 µM, first compound 0.000316 µM) of 77.7%, a viability, T/C (second compound 0.01 µM, first compound 0.001 µM) of 111% and a viability, T/C (second compound 0.01 µM, first compound 0.00316 µM) of 88.3%. The viability, T/C (second compound 0.01 µM, first compound 0.01 µM) was 92.1%, the viability, T/C [7] was 97% and the viability, T/C [8] was 48.7%. The viability, T/C (second compound 0.0316 µM, first compound 0.000316 µM) was 92.6%, the viability, T/C (second compound 0.0316 µM, first compound 0.001 µM) was 81.9% and the viability, T/C (second compound 0.0316 µM, first compound 0.00316 µM) was 63.6%. For the same compound, the viability, T/C (second compound 0.0316 µM, first compound 0.01 µM) was 73.4%, the viability, T/C [13] was 83.8% and the viability, T/C [14] was 61.7%. The viability, T/C (second compound 0.1 µM, first compound 0.000316 µM) was 97.5%, the viability, T/C (second compound 0.1 µM, first compound 0.001 µM) was 92.3% and the viability, T/C (second compound 0.1 µM, first compound 0.00316 µM) was 83.3%. For the same compound, the viability, T/C (second compound 0.1 µM, first compound 0.01 µM) was 72.8%, the viability, T/C [19] was 87.9% and the viability, T/C [20] was 66.3%. For the same compound, the viability, T/C (second compound 0.316 µM, first compound 0.000316 µM) was 71.9%, the viability, T/C (second compound 0.316 µM, first compound 0.001 µM) was 94.2% and the viability, T/C (second compound 0.316 µM, first compound 0.00316 µM) was 75%. The viability, T/C (second compound 0.316 µM, first compound 0.01 µM) was 70.8%, the viability, T/C [25] was 60.2% and the viability, T/C [26] was 58.3%. For the same compound, the viability, T/C (second compound 1 µM, first compound 0.000316 µM) was 72.2%, the viability, T/C (second compound 1 µM, first compound 0.001 µM) was 58.1% and the viability, T/C (second compound 1 µM, first compound 0.00316 µM) was 58.3%. The viability, T/C (second compound 1 µM, first compound 0.01 µM) was 58.2%, the viability, T/C [31] was 52.1% and the viability, T/C [32] was 33%.
